Test results reported in ChEMBL document CHEMBL4765228, “Indole-like Trk receptor antagonists” (Eur J Med Chem, 2016).
≈ marks a conversion by molar mass, not a printed value. Calls of active or inactive are those of the source. The calls are words filed in the database; no cut-off is given here.

Columns and labels:
MG87 = experiment: Cytotoxicity against mouse MG87 cells transfected with pFA2-Elk plasmid and pFR-luciferase plasmid assessed as cellular ATP content at 0.01 to 1 uM after 24 hrs by CellTiter-Glo luminescent analysis; type: functional, cell-based; conditions: dose 0.01-1 µM
[1] = biological target: High affinity nerve growth factor receptor (Homo sapiens, UniProt P04629); experiment: Inhibition of TrkA (unknown origin)
High affinity nerve growth factor receptor, sequence (P04629 whole entry): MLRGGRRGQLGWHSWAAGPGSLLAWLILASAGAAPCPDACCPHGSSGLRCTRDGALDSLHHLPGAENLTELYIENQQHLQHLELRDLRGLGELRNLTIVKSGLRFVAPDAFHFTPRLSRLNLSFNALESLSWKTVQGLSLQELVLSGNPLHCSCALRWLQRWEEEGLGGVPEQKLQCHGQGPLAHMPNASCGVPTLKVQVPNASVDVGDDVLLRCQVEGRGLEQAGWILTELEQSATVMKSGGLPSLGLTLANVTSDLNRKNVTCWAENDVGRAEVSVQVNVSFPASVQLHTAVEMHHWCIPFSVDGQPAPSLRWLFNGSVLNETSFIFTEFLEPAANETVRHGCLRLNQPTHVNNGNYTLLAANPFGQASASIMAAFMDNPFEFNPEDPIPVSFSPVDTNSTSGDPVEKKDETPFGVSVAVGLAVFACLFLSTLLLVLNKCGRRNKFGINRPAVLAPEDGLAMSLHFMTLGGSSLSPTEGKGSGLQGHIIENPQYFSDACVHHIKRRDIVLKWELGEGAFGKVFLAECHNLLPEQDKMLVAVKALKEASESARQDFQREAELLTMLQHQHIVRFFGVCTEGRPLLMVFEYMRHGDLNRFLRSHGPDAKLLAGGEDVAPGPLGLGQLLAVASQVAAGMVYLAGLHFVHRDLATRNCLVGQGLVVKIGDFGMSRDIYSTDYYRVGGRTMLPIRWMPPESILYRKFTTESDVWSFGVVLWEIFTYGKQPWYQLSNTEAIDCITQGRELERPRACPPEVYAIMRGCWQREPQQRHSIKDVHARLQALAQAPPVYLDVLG

Cortical neurone = experiment: Cytotoxicity against Wistar rat cortical neuron assessed as neuron survival at 0.01 to 1 uM incubated for 24 hrs; type: cell-based; conditions: dose 0.01-1 µM
[2] = biological target: BDNF/NT-3 growth factors receptor (Homo sapiens, UniProt Q16620); experiment: Inhibition of GAL4 fused TrkB (unknown origin) expressed in MG87 cells transfected with pFA2-Elk plasmid and pFR-luciferase plasmid measured for 18 hrs by luciferase reporter gene assay; type: cell-based
BDNF/NT-3 growth factors receptor, sequence (Q16620 whole entry, the tested form may be a part): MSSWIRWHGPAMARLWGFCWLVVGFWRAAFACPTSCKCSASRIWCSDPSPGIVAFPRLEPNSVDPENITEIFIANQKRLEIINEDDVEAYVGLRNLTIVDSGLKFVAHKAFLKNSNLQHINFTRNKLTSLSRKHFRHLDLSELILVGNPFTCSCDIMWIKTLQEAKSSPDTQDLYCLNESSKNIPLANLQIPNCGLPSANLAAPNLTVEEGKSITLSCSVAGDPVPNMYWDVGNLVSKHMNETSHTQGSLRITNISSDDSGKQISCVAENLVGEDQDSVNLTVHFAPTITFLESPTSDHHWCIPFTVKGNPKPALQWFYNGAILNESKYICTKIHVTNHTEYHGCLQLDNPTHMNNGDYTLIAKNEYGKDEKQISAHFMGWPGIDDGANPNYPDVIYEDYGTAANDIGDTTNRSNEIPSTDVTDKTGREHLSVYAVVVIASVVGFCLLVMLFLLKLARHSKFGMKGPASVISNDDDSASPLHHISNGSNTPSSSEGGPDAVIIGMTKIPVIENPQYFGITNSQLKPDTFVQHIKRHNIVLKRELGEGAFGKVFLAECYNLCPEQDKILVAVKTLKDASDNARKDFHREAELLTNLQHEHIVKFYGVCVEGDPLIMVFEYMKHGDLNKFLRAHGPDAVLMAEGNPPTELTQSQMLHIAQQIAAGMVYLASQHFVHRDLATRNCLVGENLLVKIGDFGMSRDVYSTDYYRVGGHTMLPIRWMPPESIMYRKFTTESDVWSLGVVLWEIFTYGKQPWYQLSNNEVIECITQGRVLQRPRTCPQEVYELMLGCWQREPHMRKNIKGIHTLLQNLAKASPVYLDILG

[3] = Aqueous solubility of the compound […] incubated for 60 min by RP-HPLC-DAD analysis; type: physicochemical

| SMILES | IC50 [1] [nM] | Activity (MG87) | further results |
| --- | --- | --- | --- |
| COc1ccc2c(c1)c(/C=C1\C(=O)Nc3ccc(S(N)(=O)=O)cc31)cn2C | – | inactive | – |
| CN(C)S(=O)(=O)c1ccc2c(c1)/C(=C/c1cn(C)c3ccc(O)cc13)C(=O)N2 | 9.17 | – | – |
| COc1ccc2c(c1)c(/C=C1\C(=O)Nc3ccc(S(=O)(=O)N(C)C)cc31)cn2C | 10.1 | inactive | Activity (Cortical neurone): Non-Toxic; IC50 [2]: 142 nM; solubility at 1 h [3]: 7.8 µM (≈ 3.21 µg/mL) |
| CNS(=O)(=O)c1ccc2c(c1)/C(=C/c1cn(C)c3ccc(OC)cc13)C(=O)N2 | – | inactive | – |

Further lines, with some results ahead:

| IC50 [1] [nM] | SMILES | Activity (MG87) | further results |
| --- | --- | --- | --- |
| 8.49 | COc1ccc2[nH]cc(/C=C3\C(=O)Nc4ccc(S(N)(=O)=O)cc43)c2c1 | – | – |
| 4.17 | Cn1cc(/C=C2\C(=O)Nc3ccc(S(N)(=O)=O)cc32)c2ccccc21 | – | – |
